Key:
Experiment in all cases: PRESTO-Tango GPCR screen
Assay type in all cases: cell-based
Conditions in all cases: 100 µM
CCR2 = target: T1, CCR2 (Homo sapiens, UniProt P41597)
T1 construct: purchased PRESTO-Tango GPCR kit (Roth lab / Addgene)
Method in brief: (§1)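 HTLA cells (HEK293 stably expressing β-arrestin-TEV and tTA-luciferase) were transiently transfected with GPCR-Tango plasmids using polyethylenimine. After 16-24 h they were stimulated with compound at 100 μM final for 20 h. Luminescence was read with Bright-Glo and expressed as fold activation over PBS control.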

P2RY1 = target: T2, P2RY1 (Homo sapiens, UniProt P47900)
T2 construct: purchased PRESTO-Tango GPCR kit (Roth lab / Addgene)
Method in brief: as §1

CNR1 = target: T3, CNR1 (Homo sapiens, UniProt P21554)
T3 construct: purchased PRESTO-Tango GPCR kit (Roth lab / Addgene)
T3 sequence (P21554 whole entry): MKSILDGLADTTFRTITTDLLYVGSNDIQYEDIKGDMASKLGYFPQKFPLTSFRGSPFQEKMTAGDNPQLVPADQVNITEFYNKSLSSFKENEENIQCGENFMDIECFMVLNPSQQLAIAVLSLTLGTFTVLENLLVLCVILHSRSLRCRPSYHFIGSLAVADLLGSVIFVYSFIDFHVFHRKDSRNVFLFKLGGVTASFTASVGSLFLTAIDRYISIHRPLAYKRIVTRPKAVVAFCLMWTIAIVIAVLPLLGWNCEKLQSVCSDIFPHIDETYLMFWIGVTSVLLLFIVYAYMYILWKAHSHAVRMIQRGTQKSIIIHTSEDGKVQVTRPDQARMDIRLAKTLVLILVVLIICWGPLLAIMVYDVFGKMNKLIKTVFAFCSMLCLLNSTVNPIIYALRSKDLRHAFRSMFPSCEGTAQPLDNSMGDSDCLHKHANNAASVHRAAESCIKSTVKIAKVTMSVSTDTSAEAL
Method in brief: as §1

GPR110 = target: T4, GPR110 (Homo sapiens, UniProt Q5T601)
T4 construct: purchased PRESTO-Tango GPCR kit (Roth lab / Addgene)
T4 sequence (Q5T601 20-910): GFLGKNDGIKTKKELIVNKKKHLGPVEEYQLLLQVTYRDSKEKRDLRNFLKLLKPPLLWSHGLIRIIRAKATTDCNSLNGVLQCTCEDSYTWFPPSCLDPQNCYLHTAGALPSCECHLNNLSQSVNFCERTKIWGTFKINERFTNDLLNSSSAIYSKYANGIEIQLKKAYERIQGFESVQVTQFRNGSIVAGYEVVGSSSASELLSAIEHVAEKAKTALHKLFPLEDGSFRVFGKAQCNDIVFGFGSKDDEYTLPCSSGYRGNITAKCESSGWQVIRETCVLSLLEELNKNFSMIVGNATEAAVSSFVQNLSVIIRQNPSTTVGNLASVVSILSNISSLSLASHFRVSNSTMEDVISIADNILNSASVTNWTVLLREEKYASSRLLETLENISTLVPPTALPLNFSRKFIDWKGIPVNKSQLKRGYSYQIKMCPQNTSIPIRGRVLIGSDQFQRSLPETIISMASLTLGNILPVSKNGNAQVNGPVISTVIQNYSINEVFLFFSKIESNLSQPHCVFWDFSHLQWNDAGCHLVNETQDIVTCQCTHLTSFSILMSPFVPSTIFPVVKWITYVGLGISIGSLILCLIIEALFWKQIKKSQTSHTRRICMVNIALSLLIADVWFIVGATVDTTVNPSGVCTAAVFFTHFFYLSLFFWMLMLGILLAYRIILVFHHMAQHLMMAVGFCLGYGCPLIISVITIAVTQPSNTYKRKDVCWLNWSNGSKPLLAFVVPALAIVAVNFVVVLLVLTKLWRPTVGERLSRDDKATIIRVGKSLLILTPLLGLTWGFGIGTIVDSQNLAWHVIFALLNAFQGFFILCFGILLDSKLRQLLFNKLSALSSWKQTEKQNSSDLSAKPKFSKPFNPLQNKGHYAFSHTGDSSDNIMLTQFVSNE
Method in brief: as §1

GRM2 = target: T5, GRM2 (Homo sapiens, UniProt Q14416)
T5 construct: purchased PRESTO-Tango GPCR kit (Roth lab / Addgene)
Method in brief: as §1

PTGER2 = target: T6, PTGER2 (Homo sapiens, UniProt P43116)
T6 construct: purchased PRESTO-Tango GPCR kit (Roth lab / Addgene)
T6 sequence (P43116 whole entry): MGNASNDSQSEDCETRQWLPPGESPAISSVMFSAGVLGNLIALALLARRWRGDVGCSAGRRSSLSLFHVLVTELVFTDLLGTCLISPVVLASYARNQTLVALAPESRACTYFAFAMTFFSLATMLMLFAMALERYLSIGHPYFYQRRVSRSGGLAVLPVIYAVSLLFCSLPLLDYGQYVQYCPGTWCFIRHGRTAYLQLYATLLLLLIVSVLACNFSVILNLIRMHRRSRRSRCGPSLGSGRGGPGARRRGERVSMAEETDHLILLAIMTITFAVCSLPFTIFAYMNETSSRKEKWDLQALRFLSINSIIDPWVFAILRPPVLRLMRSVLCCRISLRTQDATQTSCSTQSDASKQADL
Method in brief: as §1

OPN5 = target: T7, OPN5 (Homo sapiens, UniProt Q6U736)
T7 construct: purchased PRESTO-Tango GPCR kit (Roth lab / Addgene)
Method in brief: as §1

GPR63 = target: T8, GPR63 (Homo sapiens, UniProt Q9BZJ6)
T8 construct: purchased PRESTO-Tango GPCR kit (Roth lab / Addgene)
Method in brief: as §1

CXCR4 = target: T9, CXCR4 (Homo sapiens, UniProt P61073)
T9 construct: purchased PRESTO-Tango GPCR kit (Roth lab / Addgene)
Method in brief: as §1

LPAR2 = target: T10, LPAR2 (Homo sapiens, UniProt Q9HBW0)
T10 construct: purchased PRESTO-Tango GPCR kit (Roth lab / Addgene)
T10 sequence (Q9HBW0 whole entry): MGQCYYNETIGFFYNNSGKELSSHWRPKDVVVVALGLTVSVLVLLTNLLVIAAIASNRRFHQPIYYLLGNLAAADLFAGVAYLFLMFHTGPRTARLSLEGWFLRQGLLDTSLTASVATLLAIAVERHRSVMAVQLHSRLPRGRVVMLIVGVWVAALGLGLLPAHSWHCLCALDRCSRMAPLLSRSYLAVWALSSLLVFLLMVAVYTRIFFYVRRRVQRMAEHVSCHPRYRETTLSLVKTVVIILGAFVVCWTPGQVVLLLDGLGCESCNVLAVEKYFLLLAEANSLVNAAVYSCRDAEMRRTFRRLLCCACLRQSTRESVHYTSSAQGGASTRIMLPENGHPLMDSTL
Method in brief: as §1

MRGPRE = target: T11, MRGPRE (Homo sapiens, UniProt Q86SM8)
T11 construct: purchased PRESTO-Tango GPCR kit (Roth lab / Addgene)
Method in brief: as §1

ADORA1 = target: T12, ADORA1 (Homo sapiens, UniProt P30542)
T12 construct: purchased PRESTO-Tango GPCR kit (Roth lab / Addgene)
Method in brief: as §1

BB3 = target: T13, BB3 (Homo sapiens, UniProt P32247)
T13 construct: purchased PRESTO-Tango GPCR kit (Roth lab / Addgene)
Method in brief: as §1

GPR161 = target: T14, GPR161 (Homo sapiens, UniProt Q8N6U8)
T14 construct: purchased PRESTO-Tango GPCR kit (Roth lab / Addgene)
Method in brief: as §1

GPR34 = target: T15, GPR34 (Homo sapiens, UniProt Q9UPC5)
T15 construct: purchased PRESTO-Tango GPCR kit (Roth lab / Addgene)
T15 sequence (Q9UPC5 whole entry): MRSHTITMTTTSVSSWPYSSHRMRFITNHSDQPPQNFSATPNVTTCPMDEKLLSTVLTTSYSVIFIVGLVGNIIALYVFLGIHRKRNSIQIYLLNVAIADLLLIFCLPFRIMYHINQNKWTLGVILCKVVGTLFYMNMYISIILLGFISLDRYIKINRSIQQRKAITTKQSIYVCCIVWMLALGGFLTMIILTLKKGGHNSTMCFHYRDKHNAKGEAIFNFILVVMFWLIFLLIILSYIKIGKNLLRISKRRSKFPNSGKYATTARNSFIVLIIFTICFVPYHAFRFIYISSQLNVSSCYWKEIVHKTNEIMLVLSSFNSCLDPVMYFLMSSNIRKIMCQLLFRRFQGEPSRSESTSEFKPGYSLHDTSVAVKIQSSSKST
Method in brief: as §1

CHRM5 = target: T16, CHRM5 (Homo sapiens, UniProt P08912)
T16 construct: purchased PRESTO-Tango GPCR kit (Roth lab / Addgene)
Method in brief: as §1

FPR2 = target: T17, FPR2 (Homo sapiens, UniProt P25090)
T17 construct: purchased PRESTO-Tango GPCR kit (Roth lab / Addgene)
Method in brief: as §1

GPR39 = target: T18, GPR39 (Homo sapiens, UniProt O43194)
T18 construct: purchased PRESTO-Tango GPCR kit (Roth lab / Addgene)
T18 sequence (O43194 whole entry): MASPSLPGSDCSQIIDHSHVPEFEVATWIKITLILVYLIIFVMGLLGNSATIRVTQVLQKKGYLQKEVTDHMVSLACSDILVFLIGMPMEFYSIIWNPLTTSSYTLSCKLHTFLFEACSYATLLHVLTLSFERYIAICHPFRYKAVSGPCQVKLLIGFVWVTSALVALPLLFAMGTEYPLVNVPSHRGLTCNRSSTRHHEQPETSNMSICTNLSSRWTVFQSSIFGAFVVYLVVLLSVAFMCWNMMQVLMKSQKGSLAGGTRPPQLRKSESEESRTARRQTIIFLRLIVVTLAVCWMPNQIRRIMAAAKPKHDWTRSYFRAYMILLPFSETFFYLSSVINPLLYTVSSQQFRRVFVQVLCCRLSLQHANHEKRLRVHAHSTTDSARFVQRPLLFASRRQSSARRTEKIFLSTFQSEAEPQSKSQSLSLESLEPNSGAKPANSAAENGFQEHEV
Method in brief: as §1

MAS1L = target: T19, MAS1L (Homo sapiens, UniProt P35410)
T19 construct: purchased PRESTO-Tango GPCR kit (Roth lab / Addgene)
Method in brief: as §1

NPBW2 = target: T20, NPBW2 (Homo sapiens, UniProt P48146)
T20 construct: purchased PRESTO-Tango GPCR kit (Roth lab / Addgene)
Method in brief: as §1

OXGR1 = target: T21, OXGR1 (Homo sapiens, UniProt Q96P68)
T21 construct: purchased PRESTO-Tango GPCR kit (Roth lab / Addgene)
Method in brief: as §1

EDNRB = target: T22, EDNRB (Homo sapiens, UniProt P24530)
T22 construct: purchased PRESTO-Tango GPCR kit (Roth lab / Addgene)
Method in brief: as §1

PTGER1 = target: T23, PTGER1 (Homo sapiens, UniProt P34995)
T23 construct: purchased PRESTO-Tango GPCR kit (Roth lab / Addgene)
Method in brief: as §1

TSHR = target: T24, TSHR (Homo sapiens, UniProt P16473)
T24 construct: purchased PRESTO-Tango GPCR kit (Roth lab / Addgene)
Method in brief: as §1

HTR2B = target: T25, HTR2B (Homo sapiens, UniProt P41595)
T25 construct: purchased PRESTO-Tango GPCR kit (Roth lab / Addgene)
Method in brief: as §1

ADRA1D = target: T26, ADRA1D (Homo sapiens, UniProt P25100)
T26 construct: purchased PRESTO-Tango GPCR kit (Roth lab / Addgene)
T26 sequence (P25100 whole entry): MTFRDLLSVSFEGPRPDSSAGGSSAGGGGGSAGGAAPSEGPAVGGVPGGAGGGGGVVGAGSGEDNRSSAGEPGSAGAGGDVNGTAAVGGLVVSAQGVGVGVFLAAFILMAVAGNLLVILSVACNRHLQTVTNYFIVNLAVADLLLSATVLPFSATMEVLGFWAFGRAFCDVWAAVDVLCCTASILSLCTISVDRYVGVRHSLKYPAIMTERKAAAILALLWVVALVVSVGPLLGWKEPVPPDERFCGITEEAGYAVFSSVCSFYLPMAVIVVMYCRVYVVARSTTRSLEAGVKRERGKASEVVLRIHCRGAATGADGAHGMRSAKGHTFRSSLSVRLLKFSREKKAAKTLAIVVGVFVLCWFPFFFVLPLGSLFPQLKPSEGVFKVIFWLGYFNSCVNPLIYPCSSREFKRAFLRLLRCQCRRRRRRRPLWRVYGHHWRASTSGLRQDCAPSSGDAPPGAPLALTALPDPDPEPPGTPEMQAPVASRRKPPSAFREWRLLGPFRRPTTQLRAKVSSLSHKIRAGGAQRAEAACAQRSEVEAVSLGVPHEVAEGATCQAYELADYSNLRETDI
Method in brief: as §1

GPR123 = target: T27, GPR123 (Homo sapiens, UniProt Q86SQ6)
T27 construct: purchased PRESTO-Tango GPCR kit (Roth lab / Addgene)
Method in brief: as §1

GPR149 = target: T28, GPR149 (Homo sapiens, UniProt Q86SP6)
T28 construct: purchased PRESTO-Tango GPCR kit (Roth lab / Addgene)
T28 sequence (Q86SP6 whole entry): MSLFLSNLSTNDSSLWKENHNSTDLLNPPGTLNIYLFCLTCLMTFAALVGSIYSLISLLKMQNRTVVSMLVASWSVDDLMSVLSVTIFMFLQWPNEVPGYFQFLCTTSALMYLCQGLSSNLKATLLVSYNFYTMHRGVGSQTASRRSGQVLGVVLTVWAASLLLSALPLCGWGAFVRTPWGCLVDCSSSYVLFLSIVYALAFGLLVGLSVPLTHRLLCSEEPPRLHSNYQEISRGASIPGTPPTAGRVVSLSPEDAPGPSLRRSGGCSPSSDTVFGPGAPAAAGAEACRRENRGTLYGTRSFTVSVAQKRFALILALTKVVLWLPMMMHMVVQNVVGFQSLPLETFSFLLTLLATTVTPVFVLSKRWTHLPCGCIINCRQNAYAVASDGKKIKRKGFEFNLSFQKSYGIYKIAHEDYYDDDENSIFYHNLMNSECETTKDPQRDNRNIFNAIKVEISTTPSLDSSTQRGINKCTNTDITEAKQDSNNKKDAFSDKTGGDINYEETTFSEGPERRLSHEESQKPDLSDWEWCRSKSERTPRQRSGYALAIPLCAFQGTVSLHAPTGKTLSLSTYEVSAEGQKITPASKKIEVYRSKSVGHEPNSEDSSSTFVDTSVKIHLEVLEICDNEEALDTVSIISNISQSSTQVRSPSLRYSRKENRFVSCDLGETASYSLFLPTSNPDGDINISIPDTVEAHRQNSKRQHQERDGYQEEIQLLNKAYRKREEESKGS
Method in brief: as §1

CNR2 = target: T29, CNR2 (Homo sapiens, UniProt P34972)
T29 construct: purchased PRESTO-Tango GPCR kit (Roth lab / Addgene)
Method in brief: as §1

GPR146 = target: T30, GPR146 (Homo sapiens, UniProt Q96CH1)
T30 construct: purchased PRESTO-Tango GPCR kit (Roth lab / Addgene)
Method in brief: as §1

ADRA1B = target: T31, ADRA1B (Homo sapiens, UniProt P35368)
T31 construct: purchased PRESTO-Tango GPCR kit (Roth lab / Addgene)
Method in brief: as §1

TAAR9 = target: T32, TAAR9 (Homo sapiens, UniProt Q96RI9)
T32 construct: purchased PRESTO-Tango GPCR kit (Roth lab / Addgene)
Method in brief: as §1

PTGER4 = target: T33, PTGER4 (Homo sapiens, UniProt P35408)
T33 construct: purchased PRESTO-Tango GPCR kit (Roth lab / Addgene)
T33 sequence (P35408 whole entry): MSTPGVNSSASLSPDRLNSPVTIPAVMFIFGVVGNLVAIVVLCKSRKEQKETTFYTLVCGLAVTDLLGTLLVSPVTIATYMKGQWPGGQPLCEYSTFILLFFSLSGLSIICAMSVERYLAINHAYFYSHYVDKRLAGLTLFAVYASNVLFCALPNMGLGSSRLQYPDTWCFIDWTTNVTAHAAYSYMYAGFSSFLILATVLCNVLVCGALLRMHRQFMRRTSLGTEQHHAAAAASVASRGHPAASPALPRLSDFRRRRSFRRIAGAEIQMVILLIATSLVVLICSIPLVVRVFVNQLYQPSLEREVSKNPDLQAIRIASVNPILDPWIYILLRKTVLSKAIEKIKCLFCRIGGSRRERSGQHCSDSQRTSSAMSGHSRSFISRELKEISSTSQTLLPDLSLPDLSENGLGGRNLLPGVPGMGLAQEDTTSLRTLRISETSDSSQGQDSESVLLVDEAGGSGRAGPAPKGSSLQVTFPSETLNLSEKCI
Method in brief: as §1

MCHR1 = target: T34, MCHR1 (Homo sapiens, UniProt Q99705)
T34 construct: purchased PRESTO-Tango GPCR kit (Roth lab / Addgene)
Method in brief: as §1

HTR1E = target: T35, HTR1E (Homo sapiens, UniProt P28566)
T35 construct: purchased PRESTO-Tango GPCR kit (Roth lab / Addgene)
Method in brief: as §1

CCR4 = target: T36, CCR4 (Homo sapiens, UniProt P51679)
T36 construct: purchased PRESTO-Tango GPCR kit (Roth lab / Addgene)
Method in brief: as §1

Row | SMILES | GPCR activation (heatmap value) (CCR2) | GPCR activation (heatmap value) (P2RY1) | GPCR activation (heatmap value) (CNR1) | GPCR activation (heatmap value) (GPR110) | GPCR activation (heatmap value) (GRM2) | GPCR activation (heatmap value) (PTGER2) | GPCR activation (heatmap value) (OPN5) | GPCR activation (heatmap value) (GPR63) | GPCR activation (heatmap value) (CXCR4) | GPCR activation (heatmap value) (LPAR2) | GPCR activation (heatmap value) (MRGPRE) | GPCR activation (heatmap value) (ADORA1) | GPCR activation (heatmap value) (BB3) | GPCR activation (heatmap value) (GPR161) | GPCR activation (heatmap value) (GPR34) | GPCR activation (heatmap value) (CHRM5) | GPCR activation (heatmap value) (FPR2) | GPCR activation (heatmap value) (GPR39) | GPCR activation (heatmap value) (MAS1L) | GPCR activation (heatmap value) (NPBW2) | also measured
1 | CC(C)Cc1ncc(CCCCNC(=N)N)[nH]c1=O [3-Homo] | -0.2415 | 0.7917 | -0.2406 | -1.142 | -1.403 | -0.3082 | -0.4496 | 0.374 | 0.1574 | 0.05246 | 0.8539 | 0.08121 | -0.2556 | 0.03788 | -0.6255 | -0.008955 | 0.05882 | 0.5643 | 0.1505 | -0.3796 | GPCR activation (heatmap value) (OXGR1): 0.2343; GPCR activation (heatmap value) (EDNRB): -0.6292; GPCR activation (heatmap value) (PTGER1): 0.737; GPCR activation (heatmap value) (TSHR): -0.3975; GPCR activation (heatmap value) (HTR2B): -0.5052; GPCR activation (heatmap value) (ADRA1D): 0.4606; GPCR activation (heatmap value) (GPR123): -0.1319; GPCR activation (heatmap value) (GPR149): 0.01685; GPCR activation (heatmap value) (CNR2): 0.8114; GPCR activation (heatmap value) (GPR146): -0.8234; GPCR activation (heatmap value) (ADRA1B): -0.4471; GPCR activation (heatmap value) (TAAR9): -0.5012; GPCR activation (heatmap value) (PTGER4): 0.407; GPCR activation (heatmap value) (MCHR1): -1.3275; GPCR activation (heatmap value) (HTR1E): 0.001914; GPCR activation (heatmap value) (CCR4): 0.4296
2 | CC(C)Cc1ncc(CCCNC(=N)N)[nH]c1=O [compound 3] | 0.059 | 0.6628 | 0.2678 | 0.3323 | -1.186 | -0.3243 | -1.123 | 0.05297 | -0.06133 | -0.4851 | 1.264 | 0.2527 | 0.3176 | 0.1774 | 0.3024 | 0.7902 | 0.522 | 0.8238 | -0.3942 | -0.2074 | GPCR activation (heatmap value) (OXGR1): -0.2265; GPCR activation (heatmap value) (EDNRB): 0.7397; GPCR activation (heatmap value) (PTGER1): -0.585; GPCR activation (heatmap value) (TSHR): 0.2016; GPCR activation (heatmap value) (HTR2B): -0.6262; GPCR activation (heatmap value) (ADRA1D): -0.2106; GPCR activation (heatmap value) (GPR123): -0.4576; GPCR activation (heatmap value) (GPR149): 0.9394; GPCR activation (heatmap value) (CNR2): -0.04866; GPCR activation (heatmap value) (GPR146): -0.2269; GPCR activation (heatmap value) (ADRA1B): 0.1702; GPCR activation (heatmap value) (TAAR9): -0.2146; GPCR activation (heatmap value) (PTGER4): 0.5017; GPCR activation (heatmap value) (MCHR1): -0.2593; GPCR activation (heatmap value) (HTR1E): 0.5345; GPCR activation (heatmap value) (CCR4): -0.299

— publication PMC11480411, “Mucosal sugars delineate pyrazine vs pyrazinone autoinducer signaling in Klebsiella oxytoca” (Nature Communications, 2024)
